Active and inactive are the calls of the source. No cut-off for these calls is given here.
Tests used:
[1] = target: Muscarinic acetylcholine receptor (Rattus norvegicus) (UniProt P08482+P08483+P08485+P08911+P10980); assay: Ratio of QNB binding to CMD binding was evaluated; type: protein assay
[2] = target: T1, Muscarinic acetylcholine receptor M1 (Homo sapiens, UniProt P11229); assay: biochemical; type: cell-based, CHO
T1 sequence (P11229 whole entry): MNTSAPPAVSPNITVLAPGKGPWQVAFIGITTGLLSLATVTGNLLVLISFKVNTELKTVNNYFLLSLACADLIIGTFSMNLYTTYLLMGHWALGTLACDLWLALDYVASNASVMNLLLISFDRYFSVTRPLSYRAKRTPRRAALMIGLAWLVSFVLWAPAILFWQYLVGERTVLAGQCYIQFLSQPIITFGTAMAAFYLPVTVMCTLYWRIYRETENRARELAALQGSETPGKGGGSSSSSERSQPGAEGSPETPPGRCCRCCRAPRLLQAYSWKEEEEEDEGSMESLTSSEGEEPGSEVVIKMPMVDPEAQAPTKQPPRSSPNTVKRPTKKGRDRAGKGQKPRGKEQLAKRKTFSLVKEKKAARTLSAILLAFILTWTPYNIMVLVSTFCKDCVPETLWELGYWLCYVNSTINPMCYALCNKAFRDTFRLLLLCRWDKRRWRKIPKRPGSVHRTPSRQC
Description: Binding affinity of [3H]-QNB to CHO cells expressing human Muscarinic acetylcholine receptor M1

[3] = target: Muscarinic acetylcholine receptor; assay: Muscarinic acetylcholine receptor binding assay was conducted using [3H]quinuclidinyl benzilate (QNB) to label antagonist sites in membrane preparations from rat neocortex
[4] = target: Muscarinic acetylcholine receptor; assay: Muscarinic acetylcholine receptor binding assay was conducted using [3H]cis-methyldioxolane (CMD) to label agonist sites in membrane preparations from rat neocortex
[5] = target: T2, Muscarinic acetylcholine receptor M2 (Homo sapiens, UniProt P08172); assay: Binding affinity of [3H]QNB to CHO cells expressing human Muscarinic acetylcholine receptor M2; type: cell-based
T2 sequence (P08172 whole entry): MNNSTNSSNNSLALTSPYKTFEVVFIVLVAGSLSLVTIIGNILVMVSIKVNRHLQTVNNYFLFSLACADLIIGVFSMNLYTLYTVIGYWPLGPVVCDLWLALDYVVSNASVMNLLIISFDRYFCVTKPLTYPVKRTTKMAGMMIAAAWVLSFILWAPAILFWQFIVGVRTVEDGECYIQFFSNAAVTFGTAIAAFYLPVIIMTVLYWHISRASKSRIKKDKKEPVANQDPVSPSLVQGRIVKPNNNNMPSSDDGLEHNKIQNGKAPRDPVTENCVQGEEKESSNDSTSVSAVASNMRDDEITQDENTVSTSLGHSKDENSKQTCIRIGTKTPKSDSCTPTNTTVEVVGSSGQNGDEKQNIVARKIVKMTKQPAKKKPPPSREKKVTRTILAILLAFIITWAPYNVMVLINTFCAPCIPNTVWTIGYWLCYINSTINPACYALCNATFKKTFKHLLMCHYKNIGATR

[6] = target: T3, Muscarinic acetylcholine receptor M5 (Homo sapiens) (UniProt P08912); assay: Inositol phosphate(PI) accumulation in CHO cells expressing Muscarinic acetylcholine receptor M5 as maximal response at 100 uM relative to carbachol; type: functional, cell-based
T3 sequence (whole entry): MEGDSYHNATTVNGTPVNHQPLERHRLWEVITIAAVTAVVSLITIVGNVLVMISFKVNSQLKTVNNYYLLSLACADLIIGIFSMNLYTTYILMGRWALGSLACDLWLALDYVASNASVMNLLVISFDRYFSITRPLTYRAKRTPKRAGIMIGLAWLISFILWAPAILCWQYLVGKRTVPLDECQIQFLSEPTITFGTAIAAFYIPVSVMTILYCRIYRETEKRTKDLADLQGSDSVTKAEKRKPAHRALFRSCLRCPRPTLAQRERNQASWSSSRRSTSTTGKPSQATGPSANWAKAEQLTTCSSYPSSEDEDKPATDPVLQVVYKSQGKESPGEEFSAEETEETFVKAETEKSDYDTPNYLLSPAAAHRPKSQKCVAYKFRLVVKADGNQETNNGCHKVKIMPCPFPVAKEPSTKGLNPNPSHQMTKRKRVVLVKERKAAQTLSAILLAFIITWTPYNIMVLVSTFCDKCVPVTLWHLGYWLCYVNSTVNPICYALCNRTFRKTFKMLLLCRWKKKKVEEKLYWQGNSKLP

[7] = target: T4, Muscarinic acetylcholine receptor M1 (Homo sapiens) (UniProt P11229); assay: Stimulation of inositol phosphate(PI) accumulation in CHO cells expressing Muscarinic acetylcholine receptor M1 as maximal response at 100 uM relative to carbachol; type: functional, cell-based
T4 sequence (whole entry): T1 sequence (P11229 whole entry)

[8] = target: Muscarinic acetylcholine receptor M3 (Homo sapiens) (UniProt P20309); assay: Inositol phosphate(PI) accumulation in CHO cells expressing Muscarinic acetylcholine receptor M3 as maximal response at 100 uM relative to carbachol; type: functional, cell-based
Sequence of Muscarinic acetylcholine receptor M3 (Homo sapiens) (P20309 whole entry, looked up): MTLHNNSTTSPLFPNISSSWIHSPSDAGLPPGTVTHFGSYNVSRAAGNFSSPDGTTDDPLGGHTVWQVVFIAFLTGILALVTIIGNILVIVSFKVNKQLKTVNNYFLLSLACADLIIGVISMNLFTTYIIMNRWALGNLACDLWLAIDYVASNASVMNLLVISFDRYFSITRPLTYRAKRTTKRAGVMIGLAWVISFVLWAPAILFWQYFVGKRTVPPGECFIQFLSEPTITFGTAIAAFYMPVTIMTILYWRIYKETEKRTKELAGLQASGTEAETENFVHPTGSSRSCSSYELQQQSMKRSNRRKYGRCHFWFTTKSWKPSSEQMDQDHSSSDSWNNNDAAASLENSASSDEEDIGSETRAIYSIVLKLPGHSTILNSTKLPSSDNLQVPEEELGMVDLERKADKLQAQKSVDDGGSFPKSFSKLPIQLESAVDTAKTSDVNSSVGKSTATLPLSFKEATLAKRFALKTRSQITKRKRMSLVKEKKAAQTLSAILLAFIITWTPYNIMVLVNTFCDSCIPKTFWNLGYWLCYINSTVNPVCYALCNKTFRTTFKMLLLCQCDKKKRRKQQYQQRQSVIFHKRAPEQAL

[9] = target: T3, Muscarinic acetylcholine receptor M5 (Homo sapiens); assay: Stimulations of inositol phosphate(PI) ccumulation in transfected CHO cells in Muscarinic acetylcholine receptor M5 values are the maximal response obtained from the compound tested at 100 uM normalized to the effect of carbachol.; type: functional, cell-based
[10] = target: T5, Muscarinic acetylcholine receptor M4 (Homo sapiens) (UniProt P08173); assay: Amplification of transfected NIH3T3 cells was measured in Muscarinic acetylcholine receptor M4 required to produce half maximal effect; type: functional, cell-based
T5 sequence (whole entry): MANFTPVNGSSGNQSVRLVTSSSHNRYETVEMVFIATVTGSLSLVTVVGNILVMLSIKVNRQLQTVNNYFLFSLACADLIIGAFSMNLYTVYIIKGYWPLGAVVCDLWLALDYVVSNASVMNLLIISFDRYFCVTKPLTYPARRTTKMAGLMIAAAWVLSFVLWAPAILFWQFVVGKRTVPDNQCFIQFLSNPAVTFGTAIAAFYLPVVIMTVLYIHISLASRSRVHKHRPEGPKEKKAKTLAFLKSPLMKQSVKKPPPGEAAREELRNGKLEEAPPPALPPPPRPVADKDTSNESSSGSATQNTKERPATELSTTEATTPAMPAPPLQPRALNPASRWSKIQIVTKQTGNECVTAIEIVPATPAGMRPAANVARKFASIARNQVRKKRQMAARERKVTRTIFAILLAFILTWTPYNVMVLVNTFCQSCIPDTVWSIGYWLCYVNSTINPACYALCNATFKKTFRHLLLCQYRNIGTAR

[11] = target: T3, Muscarinic acetylcholine receptor M5 (Homo sapiens); assay: Amplification of transfected NIH3T3 cells was measured in Muscarinic acetylcholine receptor M5 required to produce half maximal effect; type: functional, cell-based
[12] = target: T5, Muscarinic acetylcholine receptor M4 (Homo sapiens); assay: Reversal of forskolin-stimulated accumulation of […] in transfected CHO cells, against Muscarinic acetylcholine receptor M4; type: functional, cell-based; conditions: concentration not given here
[13] = target: T4, Muscarinic acetylcholine receptor M1 (Homo sapiens); conditions: CHO
[14] = target: T5, Muscarinic acetylcholine receptor M4 (Homo sapiens); assay: Maximal response obtained for each drug normalized to effect of carbachol in Muscarinic acetylcholine receptor M4; type: functional
[15] = target: T3, Muscarinic acetylcholine receptor M5 (Homo sapiens); assay: Stimulations of inositol phosphate(PI) accumulation in transfected CHO cells in Muscarinic acetylcholine receptor M5 values are the maximal response obtained from the compound tested at 100 uM normalized to the effect of carbachol.; type: functional, cell-based
[16] = target: Muscarinic acetylcholine receptor M3 (Homo sapiens) (UniProt P20309); assay: Maximal response obtained for each drug normalized to effect of carbachol in Muscarinic acetylcholine receptor M3; type: functional
[17] = target: T6, Muscarinic acetylcholine receptor M2 (Homo sapiens) (UniProt P08172); assay: Maximal response obtained for each drug normalized to effect of carbachol in Muscarinic acetylcholine receptor M2; type: functional
T6 sequence (whole entry): T2 sequence (P08172 whole entry)

[18] = target: T3, Muscarinic acetylcholine receptor M5 (Homo sapiens); assay: Maximal response obtained for each drug normalized to effect of carbachol in Muscarinic acetylcholine receptor M5; type: functional
[19] = target: T6, Muscarinic acetylcholine receptor M2 (Homo sapiens); assay: Reversal of forskolin-stimulated accumulation of […] in transfected CHO cells, against Muscarinic acetylcholine receptor M2; Not active up to 1 mM; type: functional, cell-based
[20] = target: T6, Muscarinic acetylcholine receptor M2 (Homo sapiens); assay: Amplification of transfected NIH3T3 cells was measured in Muscarinic acetylcholine receptor M2 required to produce half maximal effect; type: functional, cell-based
[21] = target: Muscarinic acetylcholine receptor M3 (Homo sapiens) (UniProt P20309); assay: Stimulations of inositol phosphate(PI) accumulation in transfected CHO cells in Muscarinic acetylcholine receptor M3 values are the maximal response obtained from the compound tested at 100 uM normalized to the effect of carbachol.; type: functional, cell-based
[22] = target: T4, Muscarinic acetylcholine receptor M1 (Homo sapiens); conditions: NIH3T3
[23] = target: T4, Muscarinic acetylcholine receptor M1 (Homo sapiens); assay: Maximal response obtained for each drug normalized to effect of carbachol in Muscarinic acetylcholine receptor M1; type: functional
[24] = target: Muscarinic acetylcholine receptor M3 (Homo sapiens) (UniProt P20309); conditions: NIH3T3
Description: Amplification of transfected NIH3T3 cells was measured in Muscarinic acetylcholine receptor M3 required to produce half maximal effect

[25] = target: T6, Muscarinic acetylcholine receptor M2 (Homo sapiens); conditions: CHO
Description: Binding affinity expressed in IC50 labelled by [3H]QNB in CHO cells expressing human Muscarinic acetylcholine receptor M2

[26] = target: T5, Muscarinic acetylcholine receptor M4 (Homo sapiens); conditions: NIH3T3
[27] = target: T3, Muscarinic acetylcholine receptor M5 (Homo sapiens); conditions: CHO; 100 uM

Row | IC50 [2] [µM] | IC50 [5] [µM] | CCh [6] [%] | CCh [7] [%] | CCh [8] [%] | SMILES | Ratio [1] | IC50 [3] [µM] | IC50 [4] [µM] | also measured
1 | 5.46 | 27.2 | 13 | 57 | 10 | Fc1ccc(C#CCO/N=C2\CN3CCC2C3)cc1 (centres undefined) | 204 |  |  | 
2 | 9.85 | 47.9 | 9 | 54 | 12 | Fc1cccc(C#CCO/N=C2\CN3CCC2C3)c1 (centres undefined) | 132 |  |  | 
3 | 10.6 | 84.4 |  | 89 | 2 | COc1ccc(C#CCO/N=C2\CN3CCC2C3)cc1 (centres undefined) | 119 |  |  | CCh [9]: 3%
4 | 4.03 | 20.8 | 6 | 45 | 2 | Fc1ccccc1C#CCO/N=C1\CN2CCC1C2 (centres undefined) | 160 |  |  | 
5 |  |  |  |  |  | C#CCC#CCC#CCO/N=C1\CN2CCC1C2 (centres undefined) | 119 | 0.958 | 0.00804 | 
6 |  |  |  |  |  | COc1cccc(C#CCO/N=C2\CN3CC[C@@H]2C3)c1 |  |  |  | ED50 [10]: 0.051 µM; ED50 [11]: 0.868 µM; inhibition [12]: 1.6%; ED50 [13]: 1 µM; CCh [14]: 72%; Stimulation [15]: 12.3%; CCh [16]: 87%; CCh [17]: 92%; CCh [18]: 104%; ED50 [19]: inactive; ED50 [20]: 1.28 µM; Stimulation [21]: 10.4%; ED50 [22]: 0.042 µM; CCh [23]: 41%; ED50 [24]: 0.865 µM
7 | 16.6 | 69.3 |  |  |  | COc1ccccc1C#CCO/N=C1\CN2CCC1C2 (centres undefined) | 80.7 |  |  | 
8 |  |  |  |  |  | C[N+](C)(C)CCOC(N)=O |  |  |  | ED50 [11]: 1.4 µM; inhibition [12]: 6.3%; ED50 [25]: 0.27 µM; Stimulation [15]: 100%; ED50 [26]: 0.1 µM; ED50 [27]: 2.7 µM

Row | SMILES | IC50 [2] [µM] | IC50 [5] [µM] | CCh [6] [%] | CCh [7] [%] | CCh [8] [%] | Ratio [1] | IC50 [3] [µM] | IC50 [4] [µM] | also measured
9 | C#C/C=C/CO/N=C1\CN2CCC1C2 (centres undefined) | 0.216 | 0.519 |  |  |  | 398 | 13.8 | 0.0347 | 
10 | C#C/C(C)=C\CO/N=C1\CN2CCC1C2 (centres undefined) | 1.58 | 1.9 |  |  |  | 790 | 0.806 | 0.00102 | 
11 | CO/N=C1\CN2CCC1C2 (centres undefined) | 26.9 | 16.8 |  |  |  | 1340 | 24.2 | 0.0181 | 
12 | C(#Cc1ccsc1)CO/N=C1\CN2CCC1C2 (centres undefined) | 4.84 | 15.2 | 13 | 54 | 19 | 163 | 2.69 | 0.0165 | 
